Experimental data as given in US8440794B2, “Peptide sequences, their branched form and use thereof for antimicrobial applications” (Universita' Degli Studi di Siena, priority 2008, dated 2013).
In brackets after ≈: the same amount, converted by molar mass. Where a SMILES comes first, the peptide text is derived from it. Bridges are numbered along the chain shown (N, C = ends). Roman numbers before positions name the chains, in order. [ ]: non-standard residue; d: D form. βAla = NCCC(=O)O

Columns and labels:
P. aeruginosa AV65 = assay type: cell-based, Pseudomonas aeruginosa; settings: AV65, 24 h
Experimental: (§1) M33, […], M35 and M36 MICs were determined against strains of several bacterial species, including Gram-negative pathogens and also Staphylococcus aureus (Table 1). MICs in the micromolar range were observed against several Gram-negatives including Pseudomonas aeruginosa, Acinetobacter baumannii and most Enterobacteriaceae, with the exception of Proteus mirabilis, Serratia marcescens and Burkholderia cepacia. Activity of peptides was retained against MDR strains with various resistance mechanisms (such as extended-spectrum beta-lactamases and carbapenemases), including MDR P. aeruginosa strains from CF patients. Antimicrobial profile of M33, […] and potency were overall similar to those of polymyxin B, although M33, M34, M35 and M36 also appeared to have some activity against S. aureus (Table 1).

P. aeruginosa EF-OBG6-1 = assay type: cell-based, Pseudomonas aeruginosa; settings: EF-OBG6-1, 24 h
Experimental: as §1

P. aeruginosa PAO-1 = assay type: cell-based, Pseudomonas aeruginosa; settings: PAO-1, 24 h
Experimental: as §1

[1] = test system: P. aeruginosa SC-BGr12-02; assay type: cell-based, Pseudomonas aeruginosa; settings: SC-BGr12-02, 24 h
Experimental: as §1

[2] = test system: P. aeruginosa SC-CNm03-07; assay type: cell-based, Pseudomonas aeruginosa; settings: SC-CNm03-07, 24 h
Experimental: as §1

[3] = test system: P. aeruginosa SC-DMr05-04; assay type: cell-based, Pseudomonas aeruginosa; settings: SC-DMr05-04, 24 h
Experimental: as §1

[4] = test system: P. aeruginosa SC-GMm03-05; assay type: cell-based, Pseudomonas aeruginosa; settings: SC-GMm03-05, 24 h
Experimental: as §1

[5] = test system: P. aeruginosa SC-MDm03-02; assay type: cell-based, Pseudomonas aeruginosa; settings: SC-MDm03-02, 24 h
Experimental: as §1

[6] = test system: P. aeruginosa SC-MDr03-06; assay type: cell-based, Pseudomonas aeruginosa; settings: SC-MDr03-06, 24 h
Experimental: as §1

[7] = test system: P. aeruginosa SC-VMr04-05; assay type: cell-based, Pseudomonas aeruginosa; settings: SC-VMr04-05, 24 h
Experimental: as §1

P. aeruginosa VR-143/97 = assay type: cell-based, Pseudomonas aeruginosa; settings: VR-143/97, 24 h
Experimental: as §1

[8] = test system: Acinetobacter baumannii RUH 134; assay type: cell-based; settings: RUH 134, 24 h
Experimental: as §1

[9] = test system: Burkholderia cepacia ORB-99; assay type: cell-based; settings: 24 h
Experimental: as §1

[10] = test system: Enterobacer aerogenes W03BG0067; assay type: cell-based; settings: 24 h
Experimental: as §1

[11] = test system: Enterobacter cloacae W03AN0041; assay type: cell-based; settings: W03AN0041, 24 h
Experimental: as §1

[12] = test system: Escherichia coli ATCC 25922; assay type: cell-based; settings: ATCC 25922, 24 h
Experimental: as §1

[13] = test system: Klebsiella pneumoniae ATCC 13833; assay type: cell-based; settings: ATCC 13833, 24 h
Experimental: as §1

[14] = test system: Proteus mirabilis W03VA1017; assay type: cell-based; settings: W03VA1017, 24 h
Experimental: as §1

[15] = test system: Pseudomonas aeruginosa ATCC 27853; assay type: cell-based; settings: ATCC 27853, 24 h
Experimental: as §1

[16] = test system: Serratia marcescens W03BG0003; assay type: cell-based; settings: W03BG0003, 24 h
Experimental: as §1

[17] = test system: Staphylococcus aureus ATCC 29213; assay type: cell-based; settings: ATCC 29213, 24 h
Experimental: as §1

K pneumoniae 7086042 = assay type: cell-based, Klebsiella pneumoniae; settings: 7086042, 24 h
Experimental: as §1

K pneumoniae C8-27 = assay type: cell-based, Klebsiella pneumoniae; settings: C8-27, 24 h
Experimental: as §1

K pneumoniae FIPP-1 = assay type: cell-based, Klebsiella pneumoniae; settings: FIPP-1, 24 h
Experimental: as §1

E. coli W03BG0025 = assay type: cell-based, Escherichia coli; settings: W03BG0025, 24 h
Experimental: as §1

A. baumannii MR157 = assay type: cell-based, Acinetobacter baumannii; settings: MR157, 24 h
Experimental: as §1

A. baumannii RUH 875 = assay type: cell-based, Acinetobacter baumannii; settings: RUH 875, 24 h
Experimental: as §1

S. aureus 3851 = assay type: cell-based, Staphylococcus aureus; settings: 3851, 24 h
Experimental: as §1

human erythrocytes = assay type: cell-based
Experimental: FIG. 2. Percentage of haemolysis provoked by tetra-branched M33 peptide incubated 3 or 24 hours with human red blood cells.
Haemolysis of fresh human erythrocytes was determined using the method of Parpart, summarized as follows. A calibration curve was constructed by suspending fresh human erythrocytes in phosphate buffer (pH 7.4, 110 mM sodium phosphate) with various concentrations of NaCl and incubated for 30 min at room temperature. Samples were centrifuged at 500×g for 5 minutes, and haemoglobin release was monitored by measuring the absorbance of supernatants at 540 nm. The absorbance obtained with 0.1% NaCl corresponded to 100% lysis and that with 1% NaCl, to 0% lysis. Peptides dissolved in PBS were added to human erythrocyte solution at several concentrations. The resulting suspension was incubated separately at 37° C. for 2 h and 24 h. Release of hemoglobin was monitored by measuring the absorbance of the suspernatant at 540 nm after centrifuging and haemolysis percentage was calculated using the calibration curve.

CC[C@H](C)[C@H](NC(=O)[C@H](CCCNC(=N)N)NC(=O)[C@@H](N)CCCCN)C(=O)N[C@@H](CCCNC(=N)N)C(=O)N[C@H](C(=O)N[C@@H](CCCNC(=N)N)C(=O)N[C@@H](CC(C)C)C(=O)N[C@@H](CO)C(=O)N[C@@H](C)C(=O)NCCCC[C@H](NC(=O)[C@H](C)NC(=O)[C@H](CO)NC(=O)[C@H](CC(C)C)NC(=O)[C@H](CCCNC(=N)N)NC(=O)[C@@H](NC(=O)[C@H](CCCNC(=N)N)NC(=O)[C@@H](NC(=O)[C@H](CCCNC(=N)N)NC(=O)[C@@H](N)CCCCN)[C@@H](C)CC)C(C)C)C(=O)NCCCC[C@H](NC(=O)[C@H](CCCCNC(=O)[C@H](C)NC(=O)[C@H](CO)NC(=O)[C@H](CC(C)C)NC(=O)[C@H](CCCNC(=N)N)NC(=O)[C@@H](NC(=O)[C@H](CCCNC(=N)N)NC(=O)[C@@H](NC(=O)[C@H](CCCNC(=N)N)NC(=O)[C@@H](N)CCCCN)[C@@H](C)CC)C(C)C)NC(=O)[C@H](C)NC(=O)[C@H](CO)NC(=O)[C@H](CC(C)C)NC(=O)[C@H](CCCNC(=N)N)NC(=O)[C@@H](NC(=O)[C@H](CCCNC(=N)N)NC(=O)[C@@H](NC(=O)[C@H](CCCNC(=N)N)NC(=O)[C@@H](N)CCCCN)[C@@H](C)CC)C(C)C)C(=O)NCCC(=O)O)C(C)C [M35, KRIRVRLSA] (I: H-KRIRVRLSAKK[βAla]-OH / II: H-KRIRVRLSAK / III: H-KRIRVRLSA / IV: H-KRIRVRLSA; amide I:10-IV:C, I:11-II:C, II:10-III:C; N-terminus assumed) showed an MIC (P. aeruginosa AV65) of 1.5 µM (≈ 7.19 µg/mL), an MIC (P. aeruginosa EF-OBG6-1) of 1.5 µM (≈ 7.19 µg/mL) and an MIC (P. aeruginosa PAO-1) of 1.5 µM (≈ 7.19 µg/mL). For the same molecule, the MIC [1] was 1.5 µM (≈ 7.19 µg/mL), the MIC [2] was 1.5 µM (≈ 7.19 µg/mL) and the MIC [3] was 1.5 µM (≈ 7.19 µg/mL). It also gave an MIC [4] of 1.5 µM (≈ 7.19 µg/mL), an MIC [5] of 3 µM (≈ 14.4 µg/mL) and an MIC [6] of 3 µM (≈ 14.4 µg/mL). The MIC [7] was 3 µM (≈ 14.4 µg/mL), the MIC (P. aeruginosa VR-143/97) was 1.5 µM (≈ 7.19 µg/mL) and the MIC [8] was 1.5 µM (≈ 7.19 µg/mL). For the same molecule, the MIC [9] was >24 µM, the MIC [10] was 1.5 µM (≈ 7.19 µg/mL) and the MIC [11] was 1.5 µM (≈ 7.19 µg/mL). For the same molecule, the MIC [12] was 1.5 µM (≈ 7.19 µg/mL), the MIC [13] was 3 µM (≈ 14.4 µg/mL) and the MIC [14] was >24 µM. The MIC [15] was 1.5 µM (≈ 7.19 µg/mL), the MIC [16] was >24 µM and the MIC [17] was 6 µM (≈ 28.8 µg/mL). It also gave an MIC (K pneumoniae 7086042) of 3 µM (≈ 14.4 µg/mL), an MIC (K pneumoniae C8-27) of 1.5 µM (≈ 7.19 µg/mL) and an MIC (K pneumoniae FIPP-1) of 3 µM (≈ 14.4 µg/mL). It also gave an MIC (E. coli W03BG0025) of 1.5 µM (≈ 7.19 µg/mL), an MIC (A. baumannii MR157) of 3 µM (≈ 14.4 µg/mL) and an MIC (A. baumannii RUH 875) of 3 µM (≈ 14.4 µg/mL). The MIC (S. aureus 3851) was 6 µM (≈ 28.8 µg/mL) and the “Haemolysis of human red blood cells” value (human erythrocytes) was “practically negligible haemolysis grade”.
